Assay results reported in patent US20250376490A1, “C[…]-DERIVED PEPTIDE-NUCLEIC ACID HYBRID MOLECULE FOR TREATING INFECTION CAUSED BY MUTATED CORONAVIRUS” (priority 2022, published 2025).

Key:
pseudotype SARS-COV-2 = assay type: cell-based
RBD-hACE2 binding = RBD-hACE2 binding (Severe acute respiratory syndrome coronavirus 2, UniProt P0DTC2); details: 3 μM concentration
SARS-COV-2 RBD = SARS-COV-2 RBD (Severe acute respiratory syndrome coronavirus 2, UniProt P0DTC2); details: co-incubation with P05DHu and AM 122 antibodies
Procedure: Specifically, after thermal denaturation and rapid cooling, they were co-incubated with 5 nM RBD beads (final volume: 100 μL) with gentle rotation for 1 hour at room temperature. Beads were washed three times, and resuspended in 100 μL of 1× PBSMT for analysis with CytoFLEX S (Beckman Coulter). The competitive RBD-binding fraction was calculated as the ratio of the competitive mean fluorescence intensity to the uncompetitive (free-binding) mean fluorescence intensity.

Substance | infection rate with pseudotype SARS-COV-2 (percentage of GFP-expressing infected cells) (pseudotype SARS-COV-2) [%] | inhibition of RBD-hACE2 interaction (RBD-hACE2 binding) [%] | neutralizing efficiency compared to other RBD binders (pseudotype SARS-COV-2) | RBD binding competition between R7-02 and antibodies (SARS-COV-2 RBD)
LGKGDFR [LGKGDFR peptide] | 12.6 | 11.69 | – | –
R7-02 (LGKGDFRK) | 1.9 | – | significantly higher or comparable | insignificant
